According to PubChem BioAssay AID2060510 (Molecular Pharmacology Branch, DTP, NCI, 2025):
Blank lines part the entries; values can stand above or below the molecule they belong to.

Tested on: 439559-082-T-J2-PDC spheroids viability
Assay: Anticancer human tumor 439559-082-T-J2-PDC patient-derived colon adenocarcinoma cell line growth inhibition [GQUAD]
Conditions: for IC50: curve of first compound; for viability, T/C: stronger effect = lower value
Outline: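 Viability of tumor cells grown as complex spheroids with endothelial and stromal cells, exposed to drug combinations. Top concentration at or near clinical Cmax (else 10 microM), diluted in half-log increments.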

[1] = second compound 0.0316 µM, first compound 0.0316 µM
[2] = second compound 0.0316 µM, first compound 0.1 µM
[3] = second compound 0.0316 µM, first compound 0.316 µM
[4] = second compound 0.0316 µM, first compound 1 µM
[5] = second compound 0.0316 µM, first compound 3.16 µM
[6] = second compound 0.0316 µM, first compound 10 µM
[7] = second compound 0.1 µM, first compound 0.0316 µM
[8] = second compound 0.1 µM, first compound 0.1 µM
[9] = second compound 0.1 µM, first compound 0.316 µM
[10] = second compound 0.1 µM, first compound 1 µM
[11] = second compound 0.1 µM, first compound 3.16 µM
[12] = second compound 0.1 µM, first compound 10 µM
[13] = second compound 0.316 µM, first compound 0.0316 µM
[14] = second compound 0.316 µM, first compound 0.1 µM
[15] = second compound 0.316 µM, first compound 0.316 µM
[16] = second compound 0.316 µM, first compound 1 µM
[17] = second compound 0.316 µM, first compound 3.16 µM
[18] = second compound 0.316 µM, first compound 10 µM
[19] = second compound 1 µM, first compound 0.0316 µM
[20] = second compound 1 µM, first compound 0.1 µM
[21] = second compound 1 µM, first compound 0.316 µM
[22] = second compound 1 µM, first compound 1 µM
[23] = second compound 1 µM, first compound 3.16 µM
[24] = second compound 1 µM, first compound 10 µM
[25] = second compound 3.16 µM, first compound 0.0316 µM
[26] = second compound 3.16 µM, first compound 0.1 µM
[27] = second compound 3.16 µM, first compound 0.316 µM
[28] = second compound 3.16 µM, first compound 1 µM
[29] = second compound 3.16 µM, first compound 3.16 µM
[30] = second compound 3.16 µM, first compound 10 µM
[31] = second compound 10 µM, first compound 0.0316 µM
[32] = second compound 10 µM, first compound 0.1 µM
[33] = second compound 10 µM, first compound 0.316 µM
[34] = second compound 10 µM, first compound 1 µM
[35] = second compound 10 µM, first compound 3.16 µM
[36] = second compound 10 µM, first compound 10 µM
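Further: spheroids exposed to the agents for 7 days before readout.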
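Wherever viability, T/C is given: percent of luminescence signal in DMSO vehicle wells taken as 100% viability.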

IC50 (second compound 0.0316 µM): 546 nM
IC50 (second compound 0.1 µM): 447 nM
IC50 (second compound 0.316 µM): 450 nM
IC50 (second compound 1 µM): 353 nM
IC50 (second compound 3.16 µM): 380 nM
IC50 (second compound 10 µM): 263 nM
SMILES: O=C(NO)c1cnc(N2CCN(S(=O)(=O)c3ccc4ccccc4c3)CC2)nc1 + Cc1cnc(CNC(=O)c2c(=O)c3ccc(N4CCCN(C)CC4)nc3n3c2sc2ccccc23)cn1
viability, T/C [1]: 90.2%
viability, T/C [2]: 88.9%
viability, T/C [3]: 68.9%
viability, T/C [4]: 29.1%
viability, T/C [5]: 0.23%
viability, T/C [6]: 0.25%
viability, T/C [7]: 93.5%
viability, T/C [8]: 85.8%
viability, T/C [9]: 67.2%
viability, T/C [10]: 10.9%
viability, T/C [11]: 0.24%
viability, T/C [12]: 0.21%
viability, T/C [13]: 98.1%
viability, T/C [14]: 83.4%
viability, T/C [15]: 66.7%
viability, T/C [16]: 15.7%
viability, T/C [17]: 0.18%
viability, T/C [18]: 0.24%
viability, T/C [19]: 77.9%
viability, T/C [20]: 73.2%
viability, T/C [21]: 53.9%
viability, T/C [22]: 15.3%
viability, T/C [23]: 0.16%
viability, T/C [24]: 0.14%
viability, T/C [25]: 72%
viability, T/C [26]: 64.5%
viability, T/C [27]: 58.1%
viability, T/C [28]: 8.79%
viability, T/C [29]: 0.12%
viability, T/C [30]: 0.18%
viability, T/C [31]: 62.7%
viability, T/C [32]: 62.8%
viability, T/C [33]: 47.6%
viability, T/C [34]: 0.23%
viability, T/C [35]: 0.17%
viability, T/C [36]: 0.18%

IC50 (second compound 0.0316 µM): > 10000 nM
IC50 (second compound 0.1 µM): > 10000 nM
IC50 (second compound 0.316 µM): > 10000 nM
IC50 (second compound 1 µM): > 10000 nM
IC50 (second compound 3.16 µM): > 10000 nM
IC50 (second compound 10 µM): > 10000 nM
SMILES: O=c1[nH]cc(F)c(=O)[nH]1 + Cc1cnc(CNC(=O)c2c(=O)c3ccc(N4CCCN(C)CC4)nc3n3c2sc2ccccc23)cn1
viability, T/C [1]: 100%
viability, T/C [2]: 102%
viability, T/C [3]: 87.2%
viability, T/C [4]: 74.5%
viability, T/C [5]: 67%
viability, T/C [6]: 63.6%
viability, T/C [7]: 91.9%
viability, T/C [8]: 96.4%
viability, T/C [9]: 81.2%
viability, T/C [10]: 72.9%
viability, T/C [11]: 68.7%
viability, T/C [12]: 67.4%
viability, T/C [13]: 88.2%
viability, T/C [14]: 90%
viability, T/C [15]: 73.7%
viability, T/C [16]: 63.5%
viability, T/C [17]: 66.7%
viability, T/C [18]: 66%
viability, T/C [19]: 88.9%
viability, T/C [20]: 73.6%
viability, T/C [21]: 62.7%
viability, T/C [22]: 59.9%
viability, T/C [23]: 66.4%
viability, T/C [24]: 65.2%
viability, T/C [25]: 62.5%
viability, T/C [26]: 68.3%
viability, T/C [27]: 63%
viability, T/C [28]: 58.4%
viability, T/C [29]: 59.9%
viability, T/C [30]: 52.7%
viability, T/C [31]: 68.7%
viability, T/C [32]: 66.3%
viability, T/C [33]: 67.8%
viability, T/C [34]: 57.8%
viability, T/C [35]: 57.7%
viability, T/C [36]: 58.3%
